Test results as given in patent US11116760B2 (Gilead Sciences, Inc., priority 2018, dated 2021).

Biological target: α4β7 integrin (Homo sapiens (Human), UniProt P13612+P26010)
Test: α4β7 Integrin Cell Capture Assay
Format: cell-based
[1] = Table 2, capture of α4β7 expressing RPM18866 cells on MadCAM-1 extracellular domain-coated plate
[2] = RPMI8866 cells captured on MadCAM-1 extracellular domain-coated plate
[3] = Table 1, capture of α4β7 expressing RPM18866 cells on MadCAM-1 extracellular domain-coated plate

Chain of α4β7 integrin (P13612 34-1032): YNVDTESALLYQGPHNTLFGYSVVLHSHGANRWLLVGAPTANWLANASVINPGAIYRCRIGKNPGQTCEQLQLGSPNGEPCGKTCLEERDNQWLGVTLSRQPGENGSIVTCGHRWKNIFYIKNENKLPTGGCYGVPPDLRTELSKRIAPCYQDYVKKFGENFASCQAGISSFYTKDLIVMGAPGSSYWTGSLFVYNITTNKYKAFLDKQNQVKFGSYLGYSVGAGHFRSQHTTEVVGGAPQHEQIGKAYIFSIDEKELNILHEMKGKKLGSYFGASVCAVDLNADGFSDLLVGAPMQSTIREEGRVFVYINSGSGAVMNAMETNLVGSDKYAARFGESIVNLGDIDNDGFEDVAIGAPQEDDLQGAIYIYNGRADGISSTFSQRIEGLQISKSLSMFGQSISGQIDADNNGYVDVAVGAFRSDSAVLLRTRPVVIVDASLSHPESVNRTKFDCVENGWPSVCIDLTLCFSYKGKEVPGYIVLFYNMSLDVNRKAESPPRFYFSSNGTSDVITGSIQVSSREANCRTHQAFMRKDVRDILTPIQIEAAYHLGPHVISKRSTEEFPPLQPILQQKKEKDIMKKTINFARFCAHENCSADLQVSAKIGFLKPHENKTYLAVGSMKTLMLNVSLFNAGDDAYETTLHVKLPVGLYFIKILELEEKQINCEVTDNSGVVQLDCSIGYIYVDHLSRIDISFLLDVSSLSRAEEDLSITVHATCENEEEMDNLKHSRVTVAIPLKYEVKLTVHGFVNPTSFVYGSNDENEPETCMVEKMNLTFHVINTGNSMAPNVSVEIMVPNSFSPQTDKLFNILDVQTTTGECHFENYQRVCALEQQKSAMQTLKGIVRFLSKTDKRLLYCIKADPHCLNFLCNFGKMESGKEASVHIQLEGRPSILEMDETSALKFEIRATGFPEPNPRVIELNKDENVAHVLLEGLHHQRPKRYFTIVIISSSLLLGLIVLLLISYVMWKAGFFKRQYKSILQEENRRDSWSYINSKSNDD
Chain of α4β7 integrin (P26010 20-798): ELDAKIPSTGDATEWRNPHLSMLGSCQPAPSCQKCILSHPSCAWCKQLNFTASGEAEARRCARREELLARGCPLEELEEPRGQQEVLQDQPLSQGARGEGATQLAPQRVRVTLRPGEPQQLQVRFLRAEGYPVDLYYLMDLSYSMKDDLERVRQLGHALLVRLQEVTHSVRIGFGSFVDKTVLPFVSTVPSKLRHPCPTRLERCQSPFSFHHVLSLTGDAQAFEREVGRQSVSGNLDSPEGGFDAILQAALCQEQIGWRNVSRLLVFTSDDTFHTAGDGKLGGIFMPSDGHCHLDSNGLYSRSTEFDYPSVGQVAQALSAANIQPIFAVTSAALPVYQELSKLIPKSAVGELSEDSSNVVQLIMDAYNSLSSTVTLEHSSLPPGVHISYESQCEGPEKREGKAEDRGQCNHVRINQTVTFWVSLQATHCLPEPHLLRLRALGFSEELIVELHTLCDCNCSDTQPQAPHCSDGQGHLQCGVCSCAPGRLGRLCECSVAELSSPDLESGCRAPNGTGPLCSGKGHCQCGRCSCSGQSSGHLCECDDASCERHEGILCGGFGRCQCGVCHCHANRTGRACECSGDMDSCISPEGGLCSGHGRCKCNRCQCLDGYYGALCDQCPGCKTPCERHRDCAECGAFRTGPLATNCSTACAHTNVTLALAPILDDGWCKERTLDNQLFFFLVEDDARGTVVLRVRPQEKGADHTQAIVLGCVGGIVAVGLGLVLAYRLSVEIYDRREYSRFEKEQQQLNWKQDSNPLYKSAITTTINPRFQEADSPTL

SMILES	EC50 [1] [nM]	further results
Cc1cc(N2CCOC[C@H]2C(F)(F)F)cc(F)c1C(=O)N[C@@H](Cc1ccc(-n2c(=O)c3ccncc3n(C)c2=O)c2ncccc12)C(=O)O [Example 409]	–	EC50 [2]: 0.401 nM
N#Cc1ccc(-c2ccc(C[C@H](NC(=O)c3c(Cl)cc(F)cc3Cl)C(=O)O)c3cccnc23)c(Cl)c1 [Example 22, (S)-3-(8-(2-chloro-4-cyanophenyl)quinolin-5-yl)-2-(2,6-dichloro-4-fluorobenzamido)propanoic acid]	–	EC50 [3]: 48.5 nM
N#Cc1ccc(-c2ccc(C[C@H](NC(=O)c3c(F)cc(C(=O)Nc4ccccc4)cc3F)C(=O)O)c3cccnc23)c(Cl)c1 [Example 26, (S)-3-(8-(2-chloro-4-cyanophenyl)quinolin-5-yl)-2-(2,6-difluoro-4-(phenylcarbamoyl)benzamido)propanoic acid]	–	EC50 [3]: 32.8 nM
O=C(N[C@@H](Cc1ccc(-c2ccncn2)c2ncccc12)C(=O)O)c1c(F)cc(NS(=O)(=O)c2ccc(-c3ccnc(F)c3)cc2)cc1F [Example 56, (S)-2-(2,6-difluoro-4-((4-(2-fluoropyridin-4-yl)phenyl)sulfonamido)benzamido)-3-(8-(pyrimidin-4-yl)quinolin-5-yl)propanoic acid]	–	EC50 [3]: 9.1 nM
COc1c(-c2ccc(C[C@H](NC(=O)c3c(F)cc(N4CCOC[C@H]4C(F)(F)F)cc3F)C(=O)O)c3cccnc23)c(=O)n(C)c2ccccc12 [Example 205]	1.7	–
[2H]C([2H])([2H])c1cc(N2CCOC[C@@H]2C(F)(F)F)cc(F)c1C(=O)N[C@@H](Cc1ccc(-c2c(C(F)(F)F)cc(C)n(C)c2=O)c2ncccc12)C(=O)O [Example 462]	–	EC50 [2]: 0.102 nM
N#Cc1ccc(-c2ccc(C[C@H](NC(=O)c3c(Cl)cc4nc(C5CC5)[nH]c4c3Cl)C(=O)O)c3cccnc23)c(Cl)c1 [Example 179]	37.7	–
Cc1cc(C(F)(F)F)c(-c2ccc(C[C@H](NC(=O)c3c(F)cc(N4CCOC[C@@H]4C)cc3F)C(=O)O)c3cccnc23)c(=O)n1C [Example 180]	0.9	–
CC[C@@H](Nc1cc(F)c(C(=O)N[C@@H](Cc2ccc(-c3c(C(F)F)cc(C)n(C)c3=O)c3ncccc23)C(=O)O)c(F)c1)C(F)(F)F [Example 167]	0.4	–
Cc1cc(N2CCOC3(CC3)C2)cc(F)c1C(=O)N[C@@H](Cc1ccc(-c2c(C(F)(F)F)cc(C)n(C)c2=O)c2ncccc12)C(=O)O [Example 466]	–	EC50 [2]: 0.581 nM
N#Cc1ccc(-c2ccc(C[C@H](NC(=O)c3c(F)cc(N[C@@H]4CCCCC4(F)F)cc3F)C(=O)O)c3cccnc23)c(Cl)c1 [Example 170]	93.7	–
CC[C@@H](Nc1cc(F)c(C(=O)N[C@@H](Cc2ccc(-c3c(C(F)(F)F)cc(C)n(C)c3=O)c3ncccc23)C(=O)O)c(F)c1)C(F)(F)F (single isomer, unassigned) [Example 147]	–	EC50 [3]: 1.9 nM
Cc1cc(N2CCOC[C@@H]2C(F)(F)F)cc(F)c1C(=O)N[C@@H](Cc1ccc(-c2cc3cnccc3n(C)c2=O)c2ncccc12)C(=O)O [Example 469]	–	EC50 [2]: 0.103 nM
COc1c(F)cccc1-c1ccc(C[C@H](NC(=O)c2c(F)cc(NS(=O)(=O)c3ccc(-c4ccnc(F)c4)cc3)cc2F)C(=O)O)c2cccnc12 [Example 60, (S)-2-(2,6-difluoro-4-((4-(2-fluoropyridin-4-yl)phenyl)sulfonamido)benzamido)-3-(8-(3-fluoro-2-methoxyphenyl)quinolin-5-yl)propanoic acid]	–	EC50 [3]: 3 nM
CC[C@@H](Nc1cc(F)c(C(=O)N[C@@H](Cc2ccc(-c3c(C(F)(F)F)cc(C)n(C)c3=O)c3ncccc23)C(=O)O)cc1C)C(F)(F)F [Example 145, (S)-3-(8-(1,6-dimethyl-2-oxo-4-(trifluoromethyl)-1,2-dihydropyridin-3-yl)quinolin-5-yl)-2-(2-fluoro-5-methyl-4-(((R)-1,1,1-trifluorobutan-2-yl)amino)benzamido)propanoic acid]	–	EC50 [3]: 3.1 nM
N#Cc1ccc(-c2ccc(C[C@H](NC(=O)c3c(F)cc(C4=CCOCC4)cc3F)C(=O)O)c3cccnc23)c(Cl)c1 [Example 150]	43.6	–
CCCNc1cc(F)c(C(=O)N[C@@H](Cc2ccc(-c3c(C(F)(F)F)cc(C)n(C)c3=O)c3ncccc23)C(=O)O)c(F)c1 [Example 133, (S)-2-(2,6-difluoro-4-(propylamino)benzamido)-3-(8-(1,6-dimethyl-2-oxo-4-(trifluoromethyl)-1,2-dihydropyridin-3-yl)quinolin-5-yl)propanoic acid]	–	EC50 [3]: 3.2 nM
Cc1cc(N2CCOC[C@@H]2C(F)(F)F)cc(F)c1C(=O)N[C@@H](Cc1cc(F)c(-c2cc3cnccc3n(C)c2=O)c2ncccc12)C(=O)O [Example 464]	–	EC50 [2]: 0.13 nM
O=C(N[C@@H](Cc1ccc(-c2ccccc2C(F)(F)F)c2ncccc12)C(=O)O)c1c(F)cc(NS(=O)(=O)c2ccc(-c3ccnc(F)c3)cc2)cc1F [Example 65, (S)-2-(2,6-difluoro-4-((4-(2-fluoropyridin-4-yl)phenyl)sulfonamido)benzamido)-3-(8-(2-(trifluoromethyl)phenyl)quinolin-5-yl)propanoic acid]	–	EC50 [3]: 8.4 nM
Cc1cc(N2CCOC[C@@H]2C(F)(F)F)cc(F)c1C(=O)N[C@@H](Cc1ccc(-c2c(C(F)(F)F)nc(C)n(C)c2=O)c2ncccc12)C(=O)O [Example 458]	–	EC50 [2]: 0.09 nM
Cc1cc(N2CC(F)(F)C2)c(-c2ccc(C[C@H](NC(=O)c3c(F)cc(N4CCOC[C@@H]4C(F)(F)F)cc3F)C(=O)O)c3cccnc23)c(=O)n1C [Example 476]	–	EC50 [2]: 0.337 nM
CCOCc1cc(OC)c(-c2cc(F)c(C[C@H](NC(=O)c3c(F)cccc3F)C(=O)O)c3cccnc23)c(OC)c1 [Example 39, (S)-2-(2,6-difluorobenzamido)-3-(8-(4-(ethoxymethyl)-2,6-dimethoxyphenyl)-6-fluoroquinolin-5-yl)propanoic acid]	–	EC50 [3]: 81.6 nM
Cc1cc(Cl)c(-c2ccc(C[C@H](NC(=O)c3c(F)cc(N4CCOC[C@@H]4C(F)(F)F)cc3F)C(=O)O)c3cccnc23)c(=O)n1C [Example 100, (S)-3-(8-(4-chloro-1,6-dimethyl-2-oxo-1,2-dihydropyridin-3-yl)quinolin-5-yl)-2-(2,6-difluoro-4-((R)-3-(trifluoromethyl)morpholino)benzamido)propanoic acid]	–	EC50 [3]: 0.7 nM
O=C(N[C@@H](Cc1ccc(-c2c(Cl)cc(F)cc2Cl)c2ncccc12)C(=O)O)c1c(F)cccc1F [Example 19, (S)-3-(8-(2,6-dichloro-4-fluorophenyl)quinolin-5-yl)-2-(2,6-difluorobenzamido)propanoic acid]	–	EC50 [3]: 50 nM
Cc1cc(N2CCOC[C@@H]2C(F)(F)F)cc(F)c1C(=O)N[C@@H](Cc1ccc(-n2c(=O)c3cc(N(C)C)ncc3n(C)c2=O)c2ncccc12)C(=O)O [Example 416]	–	EC50 [2]: 0.126 nM
Cc1cc(C(F)(F)F)c(-c2ccc(C[C@H](NC(=O)c3c(F)cc(N4C[C@@H](C)OC[C@@H]4C)cc3F)C(=O)O)c3cccnc23)c(=O)n1C [Example 191]	1.3	–
C[C@@H](Nc1cc(F)c(C(=O)N[C@@H](Cc2ccc(-c3nc(N)ccc3C(F)(F)F)c3ncccc23)C(=O)O)c(F)c1)C(F)(F)F [Example 238]	2.8	–
Cn1c(=O)n(-c2ccc(C[C@H](NC(=O)c3c(F)cc(N4CCOC[C@@H]4C(F)(F)F)cc3F)C(=O)O)c3cccnc23)c(=O)c2cc(F)c(F)cc21 [Example 422]	–	EC50 [2]: 0.231 nM
CCOc1ccnc(-c2ccc(C[C@H](NC(=O)c3c(F)cc(N4CCOC[C@@H]4C(F)(F)F)cc3F)C(=O)O)c3cccnc23)c1C(F)(F)F [Example 193]	1.4	–

Now from value to molecule, other results behind:

EC50 [1] [nM]	SMILES	further results
12.3	CC[C@@H](Nc1cc(F)c(C(=O)N[C@@H](Cc2ccc(-c3ncc4c(n3)CCC4)c3ncccc23)C(=O)O)c(F)c1)C(F)(F)F [Example 311]	–
24.1	N#Cc1ccc(-c2ccc(C[C@H](NC(=O)c3c(F)cc(N[C@H](C4CCC4)C(F)(F)F)cc3F)C(=O)O)c3cccnc23)c(Cl)c1 [Example 333]	–
8.2	O=C(N[C@@H](Cc1ccc(-c2ncc3c(n2)CCC3)c2ncccc12)C(=O)O)c1c(F)cc(N2CCOC[C@@H]2C(F)(F)F)cc1F [Example 299]	–
13.3	CC[C@@H](Nc1cc(F)c(C(=O)N[C@@H](Cc2ccc(-c3ncc(C)cc3N(C)C)c3ncccc23)C(=O)O)c(F)c1)C(F)(F)F [Example 313]	–
6.9	N#Cc1cc(Cl)c(-c2ccc(C[C@H](NC(=O)c3c(F)cc(CS(=O)(=O)c4ccccc4)cc3F)C(=O)O)c3cccnc23)c(Cl)c1 [Example 293]	–
3.2	Cc1cc(C(F)(F)F)c(-c2ccc(C[C@H](NC(=O)c3c(F)cc(N4CCOC[C@H]4CC(F)(F)F)cc3F)C(=O)O)c3cccnc23)c(=O)n1C [Example 254]	–
3.2	CC[C@@H](Nc1cc(F)c(C(=O)N[C@H](Cc2ccc(-c3c(C(F)(F)F)cc(C)n(C)c3=O)c3ncccc23)C(=O)O)c(F)c1)C(F)(F)F [Example 253]	–
17.1	N#Cc1ccc(-c2ccc(C[C@H](NC(=O)c3c(Cl)cc4nc[nH]c4c3Cl)C(=O)O)c3cccnc23)c(Cl)c1 [Example 323]	–
9.6	N#Cc1cc(Cl)c(-c2ccc(C[C@H](NC(=O)c3c(Cl)cccc3Cl)C(=O)O)c3cc(F)cnc23)c(Cl)c1 [Example 304]	–
3	CC(C)c1cccnc1-c1ccc(C[C@H](NC(=O)c2c(F)cc(N3CCOC[C@@H]3C(F)(F)F)cc2F)C(=O)O)c2cccnc12 [Example 248]	–
9.4	O=C(N[C@@H](Cc1ccc(-c2ncc3ccccc3c2Br)c2ncccc12)C(=O)O)c1c(Cl)cccc1Cl [Example 303]	–
3.7	Cc1c(N(C)C)cc(-c2ccc(C[C@H](NC(=O)c3c(F)cc(N4CCOC[C@@H]4C(F)(F)F)cc3F)C(=O)O)c3cccnc23)c(=O)n1C [Example 259]	–
3	Cc1cc(C(F)(F)F)c(-c2ccc(C[C@H](NC(=O)c3c(F)cc(N4C[C@@H](C)OC[C@H]4C)cc3F)C(=O)O)c3cccnc23)c(=O)n1C [Example 249]	–
77	N#Cc1ccc(-c2ccc(C[C@H](NC(=O)c3c(F)cc(C(=O)N[C@H]4C[C@@H](O)C4)cc3F)C(=O)O)c3cccnc23)c(Cl)c1 [Example 267]	–
